Read-outs that look alike come from different tables or passages of the source.
Assays:
human PrCP = human PrCP (Homo sapiens (Human), UniProt P42785); assay: Prolylcarboxypeptidase (PRCP) enzyme activity assay, fluorescence intensity kinetic assay; type: biochemical; details: recombinant human PrCP (CHO), 15 uM substrate, pH 5.5, 37° C.
Protocol: The potency of compounds of formula I against PrCP was determined by a fluorescence intensity kinetic assay measuring the IC50 values of PrCP inhibitor test compounds. […] The assay was run on a Perkin Elmer Envision 2103 plate reader using a 320 nm excitation filter and a 405 emission filter. The assay was performed using a Hamilton Star liquid handling workstation. The assay employed the internally quenched fluorescent substrate (1S)-1-carboxy-5-[(2,4-dinitrophenyl)amino]pentyl N-[(7-methoxy-2-oxo-2H-chromen-4-yl)acetyl]-L-alanyl-L-prolinate prepared in house.
The assay was run in a 384-well microliter plate at 37° C. with a total volume of 50 uL. Final assay concentrations were 0.13 nM human PrCP (CHO) or 0.09 nM mouse PrCP (CHO) enzyme, 15 uM substrate and varying concentrations of inhibitor in buffer containing 10 mM NaOAc, 100 mM NaCl and 19.5 ug/mL BSA at pH 5.5. The assay also contained 2% DMSO used to solubilize the substrate and inhibitor. Inhibitors were prepared in 100% DMSO and serial diluted (in 100% DMSO) to generate 11 point titration curves. Either 39 uL of human or mouse PrCP enzyme was added to the wells of the assay plate, followed by a 1 uL addition of the serially diluted inhibitor and mixed three times using a 30 uL mix volume. The reaction was initiated by the addition of 10 uL substrate and mixed three times using a 30 μL mix volume. The reactions were monitored continuously over 25 min at 37° C. to obtain initial velocities. IC50 values were calculated by comparing the resulting rates of reaction of the inhibited and control initial velocities.
The enzymes were diluted in a mixture of 10 mM NaOAc (pH 5.5)/100 mM NaCl buffer containing 25 ug/mL bovine serum albumin that had been warmed to 37° C. in a water bath. The PrCP inhibitor test compounds were plated in 100% DMSO with a highest concentration of 500 uM. There were 12 dilution points for each compound tested including a blank with DMSO only. The test compounds from the source titration plate were transferred into the assay reaction plate at a 1:50 dilution using the Hamilton Star workstation and mixed, resulting in a final concentration for the test compounds in the range of 10,000 to 0.066 nM. Likewise, two control compounds were similarly titrated and included in each assay, with final starting concentrations starting at 10,000 nM and 200 nM, respectively. The reaction was initiated by the addition of 75 uM of the (1S)-1-carboxy-5-[(2,4-dinitrophenyl)amino]pentyl N-[(7-methoxy-2-oxo-2H-chromen-4-yl)acetyl]-L-alanyl-L-prolinate substrate, which was diluted in a mixture of 10 mM NaOAc (pH 5.5)/100 mM NaCl that had been warmed to 37° C. in a water bath, dispensed using the Hamilton Star workstation and mixed. The substrate was solubilized in 100% DMSO prior to dilution into the assay. The final assay concentrations in the 50 uL reactions were 15 uM of (1S)-1-carboxy-5-[(2,4-dinitrophenyl)amino]pentyl N-[(7-methoxy-2-oxo-2H-chromen-4-yl)acetyl]-L-alanyl-L-prolinate substrate, 0.13 nM Human PrCP (CHO) or 0.09 nM Mouse PrCP (CHO), and 2% DMSO.
The resulting rates of reaction were used to determine the IC50 value for each PrCP inhibitor compound tested.

[1] = limited weight loss of about; cited from earlier work
[2] = intracerebroventricular to rats; cited from earlier work
[3] = systemic administration to obese, leptin deficient mice; cited from earlier work

human PrCP, sequence (P42785 46-496): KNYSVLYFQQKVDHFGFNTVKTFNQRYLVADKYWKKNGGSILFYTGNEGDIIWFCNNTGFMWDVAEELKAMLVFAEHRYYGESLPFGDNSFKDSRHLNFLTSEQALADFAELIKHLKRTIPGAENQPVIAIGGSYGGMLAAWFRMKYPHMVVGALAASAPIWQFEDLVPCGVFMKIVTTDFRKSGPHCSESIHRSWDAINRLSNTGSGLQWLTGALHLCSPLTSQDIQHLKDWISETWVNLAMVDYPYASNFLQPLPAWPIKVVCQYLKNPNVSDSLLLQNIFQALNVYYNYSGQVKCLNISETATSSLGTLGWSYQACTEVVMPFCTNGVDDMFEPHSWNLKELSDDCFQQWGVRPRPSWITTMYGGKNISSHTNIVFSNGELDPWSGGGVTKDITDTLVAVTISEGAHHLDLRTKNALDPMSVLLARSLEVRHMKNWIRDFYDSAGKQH

Row | Molecule | IC50 (human PrCP) [nM] | also measured
1 | Clc1ccc(-c2cc(C3CCN(CCc4ccccc4)CC3)n(-c3ncccn3)n2)cc1 [Example 1, 2-{3-(4-Chlorophenyl)-5-[1-(2-phenylethyl)piperidin-4-yl]-1H-pyrazol-1-yl}pyrimidine] | 0.051 | –
2 | Clc1ccc(-c2cc(C3CCN(CCc4ccccc4)CC3)nn2-c2ccncn2)cc1 [Example 13, 4-{5-(4-chlorophenyl)-3-[1-(2-phenylethyl)piperidin-4-yl]-1 Hyl}pyrimidine] | 38.4 | –
3 | CCn1nc(-c2ccc(Cl)cc2)cc1C1CCN(CCc2ccccc2)CC1 [Example 26, 4-[3-(4-chlorophenyl)-1-ethyl-1 H-pyrazol-5-yl]-1-(2-phenylethyl)piperidine] | 31.8 | –
4 | COC(=O)C(CN1CCC(c2cc(-c3ccc(F)cc3)nn2-c2ncccn2)CC1)c1ccccc1 (centres unmarked) [Example 33, Methyl 3-{4-[3-(4-fluorophenyl)-1-(pyrimidin-2-yl)-1 H-pyrazol-5-yl]piperidin-1-pyrazol-5-yl]piperidin-1] | 0.035 | –
5 | O=C(O)C(CN1CCC(c2cc(-c3ccc(F)cc3)nn2-c2ncccn2)CC1)c1ccccc1 (centres unmarked) [Example 34, 3-{4-[3-(4-fluorophenyl)-1-(pyrimidin-2-yl)-1 H-pyrazol-5-yl]piperidin-1-yl}-2-phenylpropanoic acid] | 0.51 | –
6 | OC(CN1CCC(c2cc(-c3ccc(Cl)cc3)nn2-c2ncccn2)CC1)c1ccccc1 (centres unmarked) [Example 36, 2-{4-[3-(4-Chlorophenyl)-1-(pyrimidin-2-yl)-1H-pyrazol-5-yl]piperidin-1-yl}-1-phenylethanol] | 0.31 | –
7 | O=S(=O)(c1ccc(N2CCC(c3cc(-c4ccc(Cl)cc4)nn3-c3ncccn3)CC2)nc1)N1CCOCC1 [Example 48, 4-[(6-{4-[3-(4-chlorophenyl)-1-(pyrimidin-2-yl)-1 H-pyrazol-5-yl]piperidin-1-yl}pyridin-3-yl)sulfonyl]morpholine] | 80.2 | –
8 | CS(=O)(=O)N1CCC(N2CCC(c3cc(-c4ccc(Cl)cc4)nn3-c3ccccc3)CC2)C1 (centres unmarked) [Example 60, 4-[3-(4-chlorophenyl)-1-phenyl-1 H-pyrazol-5-yl]-1-[1-(methylsulfonyl)pyrrolidin-3-yl]piperidine] | 21.1 | –
9 | O=C(Cc1ccccc1C(F)(F)F)N1CCC(c2cc(-c3ccc(F)cc3)nn2-c2ncccn2)CC1 [Example 68, 1-{4-[3-(4-fluorophenyl)-1-(pyrimidin-2-yl)-1 H-pyrazol-5-yl]piperidin-1-yl}-2-[2-(trifluoromethyl)phenyl]ethanone] | 1.28 | –
10 | CO[C@@H](CN1CCC(c2nc(-c3ccc(F)cc3)nn2-c2ncccn2)CC1)c1ccccc1 [Example 81, 2-[3-(4-fluorophenyl)-5-{1-[(2 R)-2-methoxy-2-phenylethyl]piperidin-4-yl}-1 H-1,2,4-triazol-1-yl]pyrimidine] | 2.58 | –
11 | Fc1ccc(-c2nc(C3C4CN(CCc5ccccc5)CC43)n(-c3ncccn3)n2)cc1 (centres unmarked) [Example 82, 6-[3-(4-Fluorophenyl)-1-(pyrimidin-2-yl)-1H-1,2,4-triazol-5-yl]-3-(2-phenylethyl)-3-azabicyclo[3.1.0]hexane] | 28.6 | –
12 | CCN[C@@H](C)Cc1cccc(C(F)(F)F)c1 [dexfenfluramine] | – | weight loss, of body weight, drug compared to placebo [1]: 5%-10%
13 | CCCCCCCCCCC[C@@H](C[C@@H]1OC(=O)[C@H]1CCCCCC)OC(=O)[C@H](CC(C)C)NC=O [orlistat] | – | weight loss, of body weight, drug compared to placebo [1]: 5%-10%
14 | CC(C)(N)Cc1ccccc1 [phentermine] | – | weight loss, of body weight, drug compared to placebo [1]: 5%-10%
15 | CC(C)CC(N(C)C)C1(c2ccc(Cl)cc2)CCC1 (centres unmarked) [sibutramine] | – | weight loss, of body weight, drug compared to placebo [1]: 5%-10%
16 | t-butyl carbamate-prolyl prolinal [BPP] | – | overnight food intake [2]: suppression of overnight food intake; overnight food intake [3]: suppression of overnight food intake

From US9365539B2, “Prolylcarboxypeptidase inhibitors” (Merck Sharp & Dohme Corp., priority 2010, dated 2016)
